Assay results published in article PMC12040169 (PLOS Biology, 2025).

Assay: in vitro
Conditions: human, hela cells, % viability

SMILES | viability at 28.5 h, 10 µM [%]
C/C(=N\NC(=N)N)C(F)(F)F [CBK023019G] | 90.1
Cc1cc(-c2ccccc2)nn(CCN2CCOCC2)c1=O [CBK023022C] | 88
O=C1CN(Cc2ccc(Cl)cc2)CCO1 [CBK023036C] | 88.7
O=C1c2ccc(S(=O)(=O)c3ccc4c(c3)C(=O)N(CCO)C4=O)cc2C(=O)N1CCO [CBK023065] | 112
CCOC1=NCCN2CCc3cccc1c32 [CBK023113] | 117
CCOC(=O)CC(O)(c1ccc(OC)cc1)c1cc(C)no1 (stereo not shown) [CBK023133] | 107
COc1cccc(CCNC(=O)CCN2C(=O)CCC2=O)c1 [CBK023150] | 91.8
C#CCn1c(=O)n(C)n(C)c1=O [CBK023151] | 89.4
CSc1nc(Cl)c(-c2ccccc2)c(N(C)C)n1 [CBK023169] | 96.9
CC1CCCCN1CC(=O)N(C)C(C)COc1ccc(Cl)cc1 (stereo not shown) [CBK023201] | 87.8
CNCCOc1ccccc1O [CBK023215C] | 99.8
CO/C(=N\S(=O)(=O)c1ccccc1)c1ccccc1 [CBK023221] | 89.4
CCCN(CCC)C(=O)c1nc(C)c(C(=O)N(CCC)CCC)nc1C [CBK023232] | 89.2
CCN(CC)CCN(C(=O)N1CCCC1)c1c(C)cccc1C [CBK023237C] | 98.7
O=C(CCCN[C@H]1CC[C@](O)(c2ccc(F)cc2)CC1)c1ccc(F)cc1 [CBK023258C] | 90.7
O=C(N/N=C\c1c(F)cccc1Cl)c1ccncc1 [CBK023263] | 84.7
CCC1(c2ccccc2)OCC(C2CCCCN2)O1 (stereo not shown) [CBK023284C] | 85.7
Cc1ccc(S(=O)(=O)N2CC(=O)NC2=S)cc1 [CBK023293] | 94.5
Cc1cc(=O)c(C#N)c(C)[nH]1 [CBK023326] | 92.4
CC(=O)CCc1cc(CCC(N)=O)on1 [CBK023350] | 90.3
CN(C)CCN1C(=O)CCc2ccccc21 [CBK023390C] | 102
CN(C)C(=O)C1(c2ccccc2)CCNC1 (stereo not shown) [CBK023394C] | 114
CC1(C)Cc2ccccc2C(NCCC(=O)O)=N1 [CBK023412] | 97.9
Cc1ccc(S(=O)(=O)NCCC(=O)NO)cc1 [CBK023472] | 110

SMILES | viability at 28.5 h, 10 µM [%]
CCCC1SCC(=O)N1c1nncs1 (stereo not shown) [CBK023497] | 95.4
S=C(Cc1csc2ccccc12)NC1CCCCC1 [CBK023515] | 88.7
Cc1csc2ncnc(N3CCN(C(=O)C4CC4)CC3)c12 [CBK023593] | 112
N#Cc1nccnc1S(=O)(=O)CCO [CBK023595] | 90.1
CC(=O)N1N=C(c2cccnc2)OC1(C)C [CBK023619] | 90.4
NC(=O)c1sc2nc(-c3cccnc3)ccc2c1N [CBK023645] | 66
CCOC(=O)c1cnn2c(N)c(C(N)=O)nnc12 [CBK023694] | 98.2
CC(C)/C=N/N=C1\NC(=O)CS1 [CBK023706] | 90.7
COC(=O)c1ccccc1OCCc1csc(NS(=O)(=O)c2cccc(Cl)c2C)n1 [CBK023735] | 116
O=C1CCCN1CC#CCN1CCN(Cc2ccccc2)CC1 [CBK023770C] | 96.2
CCN(CC)CCn1cc(C2CCCN(C)CC2)c2ccccc21 (stereo not shown) [CBK023788B] | 91.1
O=C(O)c1cnc(NCC2CCCCCC2)[nH]c1=O [CBK023792] | 88.8
CN/C(=N\C1CCCCC1)N1CCOCC1 [CBK023800G] | 92.2
CCCCNC(=S)NC1CC[C@@]2(Cc3ccc(OC)c(OC)c3)CCN(C)[C@H]2C1 (stereo partly shown) [CBK023805] | 81.5
CCNC(=S)N[C@@H]1CC[C@@]2(Cc3ccc(OC)c(OC)c3)CCN(C)[C@H]2C1 [CBK023811] | 94.5
CN(C)CCN(C)[C@H]1CCCC[C@@H]1N(C)C(=O)Cc1ccc(Br)cc1 [CBK023819C] | 93.4
COc1cc(CCN2CCCCC2)c(C(C)n2cncn2)cc1OC (stereo not shown) [CBK023837G] | 90.3
CNC(=O)Nc1cccc(S(N)(=O)=O)c1 [CBK023839] | 89.1
Cc1nc(NCc2ccc(C(F)(F)F)cc2)nc(N2CCOCC2)n1 [CBK023863] | 91.9
CCN(CC)CCCNc1nc2ccc(O)cc2s1 [CBK023880C] | 105
CC(C)(C)NCC(O)CO/N=C(/c1ccncc1)c1ccc(Br)cc1 (stereo not shown) [CBK023914G] | 95.7
CN1CCCC1C(CCNC1CCCCC1)c1ccccc1 (stereo not shown) [CBK023921C] | 99
COc1ccccc1NC(=O)CN1CCN(CCC(=O)c2ccc(C(C)C)cc2)CC1 [CBK023925C] | 95
CC1(C)OC(N2CCN(Cc3ccccc3)CC2)=Nc2ccccc21 [CBK023933C] | 90.9

SMILES | viability at 28.5 h, 10 µM [%]
c1ccc2[nH]c(CCSCCc3nc4ccccc4[nH]3)nc2c1 [CBK023949] | 86
O=c1[nH]c(=S)c2c(n1CCc1ccccn1)CCCC2 [CBK023951G] | 101
c1ccc2c(c1)CCC(CNCCN1CCOCC1)O2 (stereo not shown) [CBK023956G] | 94
CCN(CC)CC1CCCCC1=O (stereo not shown) [CBK023965G] | 93.9
NCCNCCNCCN [CBK023985C] | 93.2
Cc1cc(C(=O)NCCc2ccc(S(=O)(=O)NC(=O)NC3CCCCC3)cc2)n[nH]1 [CBK023997] | 99.1
Nc1ccc2cc3ccc(N)cc3nc2c1 [CBK024003G] | 71
COc1ccc2c3c1CCC(C)(C)C3COC2CCN1CCN(c2ccc(F)cc2)CC1 (stereo not shown) [CBK024047C] | 86.7
N=C(N)NCCc1ccc(Cl)cc1 [CBK024074G] | 105
CC1(C)COC(CCN2CCN(c3ccc(F)cc3)CC2)c2ccccc21 (stereo not shown) [CBK024080C] | 105
COc1ccccc1CN(C)C(C)=O [CBK024120] | 118
CCC(=O)N[C@H]1CC[C@@]2(Cc3ccc(OC)cc3)CCN(C)[C@H]2C1 [CBK024126] | 98.9
COc1ccc(C[C@@]23CC[C@H](NC(=O)NCCc4ccccc4)C[C@@H]2N(C)CC3)cc1 [CBK024127] | 95.2
Cc1cc(C(F)(F)F)nc2c(OCCOc3nccnc3N3CCNCC3)cnn12 [CBK024195C] | 96.1
COc1ccc(N)cc1OCCn1ccnc(N2CCNCC2)c1=O [CBK024211C] | 98.3
OC(c1ccncc1)C(O)c1ccncc1 (stereo not shown) [CBK024254] | 87.1
COc1ccc(CCC(=O)Nc2ccccc2N2CCCNCC2)cc1 [CBK024286T] | 101
CCNc1cccnc1N1CCN(CCc2cc(C)c(O)c(C)c2)CC1 [CBK024361C] | 108
CCCN1CCCC(c2ccccc2O)C1 (stereo not shown) [CBK024365G] | 95.3
Oc1nc(O)c2c3c(n(CCn4ccnc4)c2n1)CCCC3 [CBK024380B] | 109
CC(C)CC(C(=O)Nc1ccc(C2CCCC2)cc1)N1CCN(C)CC1 (stereo not shown) [CBK024386C] | 87
c1ccc(CNCc2nc(-c3ccccc3)no2)cc1 [CBK024404] | 99.1
NS(=O)(=O)c1cccc(NC(=O)c2cccnc2)c1 [CBK024417] | 93.6
NS(=O)(=O)c1cccc(NC(=O)c2cccs2)c1 [CBK024419] | 94.2

SMILES | viability at 28.5 h, 10 µM [%]
CC(=O)NCCN(Cc1ccc(S(=O)(=O)N2CCOC2=O)cc1)Cc1ccoc1 [CBK024460] | 110
COc1cccc(CC(=O)NCc2ccccc2OC2CCNC2)c1 (stereo not shown) [CBK024487T] | 88.5
COCCC(=O)NCc1ccc(OC2CCNCC2)cc1 [CBK024494T] | 98.6
COc1ccc(CCN(CCc2ccccc2)CC(O)COc2cccc3c2CCCC3)cc1 (stereo not shown) [CBK024506T] | 82.2
COc1ccc(CCN(Cc2cccnc2)CC(O)COc2cccc3c2CCCC3)cc1 (stereo not shown) [CBK024545T] | 92
CCCC(=O)Nc1ccc(N2CCNCC2)c2ccccc12 [CBK024619T] | 88.4
O=C1OCCN1S(=O)(=O)c1ccc(CN2CCCN(Cc3ccc(S(=O)(=O)N4CCOC4=O)cc3)CC2)cc1 [CBK024728] | 87.1
O=C1OCCN1S(=O)(=O)c1ccc(CN2CCN(Cc3ccc(S(=O)(=O)N4CCOC4=O)cc3)CC2)cc1 [CBK024729] | 91.4
O=S(=O)(c1ccccc1)N(CC(F)(F)F)c1ccc(C(O)(C(F)(F)F)C(F)(F)F)cc1 [CBK024768] | 121
CCCC(=O)Nc1cc(S(=O)(=O)NC)ccc1C [CBK024770] | 91.8
Cc1c(Cl)cccc1S(=O)(=O)Nc1nccnc1C(=O)O [CBK024795] | 90.9
O=C(O)c1c(NS(=O)(=O)Cc2ccccc2[N+](=O)[O-])sc2c1CCCC2 [CBK024819] | 106
O=c1c(N2CCNCC2)nccn1CC1COc2ccccc2O1 (stereo not shown) [CBK024845T] | 87
O=C1NC(N2CCCC2)=NOc2nnc(Cl)cc21 [CBK024856] | 109
COc1cc(C(C)=O)ccc1OCCCN1CCC(O)(C(=O)c2cccc(C(F)(F)F)c2)CC1 [CBK024866C] | 103
COc1cc(C(C)=O)ccc1OCCCN1CCC(O)(C(=O)c2ccc(Cl)c(Cl)c2)CC1 [CBK024875C] | 97.6
CCCN1CCC2CN(CCCC(=O)c3ccc(F)cc3)CCN2C1=O (stereo not shown) [CBK024882C] | 101
CCCCCCN1CCC2CN(CCCC(=O)c3ccc(F)cc3)CCN2C1=O (stereo not shown) [CBK024890C] | 99
CC(C)CCN1CCC2CN(CCCC(c3ccc(F)cc3)c3ccc(F)cc3)CCN2C1=O (stereo not shown) [CBK024898C] | 102
CCNC(=O)N1CC(C)N(CCCC(c2ccc(F)cc2)c2ccc(F)cc2)CC1C (stereo not shown) [CBK024912C] | 105
CCCCCNC(=O)N1CCN(CCCC(c2ccc(F)cc2)c2ccc(F)cc2)CC1 [CBK024917C] | 103

Same assay, conditions: human, hela cells, % viability, bulk resorufin, single well

SMILES | viability at 28.5 h, 10 µM [%]
CCCN(CCc1cccnc1)C1Cc2cc(OC)c(OC)cc2C1 [CBK023935C] | 88.1
